Source: patent US20240140951A1, “IMIDAZOPYRIDAZINE DERIVATIVES AS IL-17 MODULATORS” (UCB Biopharma SRL, priority 2020, published 2024)

Target: T1, IL-17A (Homo sapiens, UniProt Q16552)
T1 sequence (Q16552 24-155): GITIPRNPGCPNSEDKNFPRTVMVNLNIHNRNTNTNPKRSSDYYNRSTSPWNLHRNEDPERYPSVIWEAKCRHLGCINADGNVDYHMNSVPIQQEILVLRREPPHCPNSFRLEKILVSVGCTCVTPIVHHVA
Assay: Inhibition of IL-17A induced IL-6 release from dermal fibroblast cell line (HDF cell line assay)
Assay type: cell-based
Details: HDF cells stimulated with IL-17A 50 pM + TNF-α 25 pM; IL-6 release measured by HTRF
Description: Inhibition of IL-17A Induced IL-6 Release from Dermal Fibroblast Cell Line
The purpose of this assay is to test the neutralising ability to IL-17 proteins, in a human primary cell system. Stimulation of normal human dermal fibroblasts (HDF) with IL-17 alone produces only a very weak signal but in combination with certain other cytokines, such as TNFα, a synergistic effect can be seen in the production of inflammatory cytokines, i.e. IL-6.
HDFs were stimulated with IL-17A (50 pM) in combination with TNF-α (25 pM). The resultant IL-6 response was then measured using a homogenous time-resolved FRET kit from Cisbio. The kit utilises two monoclonal antibodies, one labelled with Eu-Cryptate (Donor) and the second with d2 or XL665 (Acceptor). The intensity of the signal is proportional to the concentration of IL-6 present in the sample (Ratio is calculated by 665/620×104).
The ability of a compound to inhibit IL-17 induced IL-6 release from human dermal fibroblasts is measured in this assay.
HDF cells (Sigma #106-05n) were cultured in complete media (DMEM+10% FCS+2 mM L-glutamine) and maintained in a tissue culture flask using standard techniques. Cells were harvested from the tissue culture flask on the morning of the assay using TrypLE (Invitrogen #12605036). The TrypLE was neutralised using complete medium (45 mL) and the cells were centrifuged at 300×g for 3 minutes. The cells were re-suspended in complete media (5 mL) counted and adjusted to a concentration of 3.125×10^4 cells/mL before being added to the 384 well assay plate (Corning #3701) at 40 μL per well. The cells were left for a minimum of three hours, at 37° C./5% CO2, to adhere to the plate.
Compounds were serially diluted in DMSO before receiving an aqueous dilution into a 384 well dilution plate (Greiner #781281), where 5 μL from the titration plate was transferred to 45 μL of complete media and mixed to give a solution containing 10% DMSO.
Mixtures of TNFα and IL-17 cytokine were prepared in complete media to final concentrations of TNFα 25 pM/IL-17A 50 pM, then 30 μL of the solution was added to a 384 well reagent plate (Greiner #781281).
L from the aqueous dilution plate was transferred to the reagent plate containing 30 μL of the diluted cytokines, to give a 2.5% DMSO solution. The compounds were incubated with the cytokine mixtures for 5 h at 37° C. After the incubation, 10 μL was transferred to the assay plate, to give a 0.5% DMSO solution, then incubated for 18-20 h at 37° C./5% CO2.
From the Cisbio IL-6 FRET kit (Cisbio #62IL6PEB) europium cryptate and Alexa 665 were diluted in reconstitution buffer and mixed 1:1, as per kit insert. To a white low volume 384 well plate (Greiner #784075) were added FRET reagents (10 μL), then supernatant (10 μL) was transferred from the assay plate to Greiner reagent plate. The mixture was incubated at room temperature for 3 h with gentle shaking (<400 rpm) before being read on a Synergy Neo 2 plate reader (Excitation: 330 nm; Emission: […]).

Structure (SMILES)	IC50 [nM]
Cc1nonc1C(=O)N[C@H](c1cn2ncc(C3CN(C4COC4)CC3C(=O)N3CC(F)(F)C(F)(F)C3)cc2n1)C1CCC(F)(F)CC1 (single isomer, unassigned) [Example 13]	25.1
Cc1nonc1C(=O)N[C@H](c1cn2ncc(C3CC(F)(F)CCN3C(=O)C34CC(F)(C3)C4)cc2n1)C1CCC(F)(F)CC1 (single isomer, unassigned) [Example 16]	25.1
CNC(=O)[C@H](NC(=O)C(CC(F)F)c1cnn2cc([C@@H](NC(=O)c3nonc3C)C3CCC(F)(F)CC3)nc2c1)C(C)C (stereo partly drawn) [Example 2, N-{(S)-(4,4-difluorocyclohexyl)[7-(3,3-difluoro-1-{[(1R)-2-methyl-1-(methylcarbamoyl)-propyl]carbamoyl}propyl)imidazo[1,2-b]pyridazin-2-yl]methyl}-4-methyl-1,2,5-oxadiazole-3-carboxamide]	10
CC(C)n1nccc1C(=O)N[C@H](c1cn2ncc(C(CC(F)F)C(=O)NCC(F)(F)F)cc2n1)C1CCC(F)(F)CC1 (stereo partly drawn) [Example 7, N-[(S)-(4,4-Difluorocyclohexyl){7-[3,3-difluoro-1-(2,2,2-trifluoroethylcarbamoyl)-propyl]imidazo[1,2-b]pyridazin-2-yl}methyl]-2-isopropylpyrazole-3-carboxamide]	25.1
CC(C)n1ncnc1C(=O)N[C@H](c1cn2ncc(C(CC(F)F)C(=O)NCC(F)(F)F)cc2n1)C1CCC(F)(F)CC1 (stereo partly drawn) [Example 8, N-[(S)-(4,4-Difluorocyclohexyl){7-[3,3-difluoro-1-(2,2,2-trifluoroethylcarbamoyl)-propyl]imidazo[1,2-b]pyridazin-2-yl}methyl]-2-isopropyl-1,2,4-triazole-3-carboxamide]	158
Cc1nonc1C(=O)N[C@H](c1cn2ncc(C3(C(=O)NCC(F)(F)F)CCC(F)(F)CC3)cc2n1)C1CCC(F)(F)CC1 [Example 9, N-[(S)-(4,4-Difluorocyclohexyl){7-[4,4-difluoro-1-(2,2,2-trifluoroethylcarbamoyl)-cyclohexyl]imidazo[1,2-b]pyridazin-2-yl}methyl]-4-methyl-1,2,5-oxadiazole-3-carboxamide]	63.1
Cc1nonc1C(=O)NC(c1cn2ncc(C(CC(F)F)C(=O)NCC(F)(F)F)cc2n1)C(C1CC1)C1CC1 (stereo not shown) [Example 11, N-(2,2-Dicyclopropyl-1-{7-[3,3-difluoro-1-(2,2,2-trifluoroethylcarbamoyl)propyl]-imidazo[1,2-b]pyridazin-2-yl}ethyl)-4-methyl-1,2,5-oxadiazole-3-carboxamide]	316
Cc1nonc1C(=O)N[C@H](c1cn2ncc(C3(C(=O)NCC(C)(F)F)CCOCC3)cc2n1)C1CCC(F)(F)CC1 [Example 14, N-[(S)-(4,4-Difluorocyclohexyl){7-[4-(2,2-difluoropropylcarbamoyl)tetrahydropyran-4-yl]imidazo[1,2-b]pyridazin-2-yl}methyl]-4-methyl-1,2,5-oxadiazole-3-carboxamide]	63.1
CC(F)(F)CNC(=O)C1(c2cnn3cc([C@@H](NC(=O)c4nonc4C4CC4)C4CCC(F)(F)CC4)nc3c2)CCOCC1 [Example 17, 4-Cyclopropyl-N-[(S)-(4,4-difluorocyclohexyl){7-[4-(2,2-difluoropropylcarbamoyl)-tetrahydropyran-4-yl]imidazo[1,2-b]pyridazin-2-yl}methyl]-1,2,5-oxadiazole-3-carboxamide]	6.31

Continued, values first:

IC50 [nM]	Structure (SMILES)
31.6	Cc1nonc1C(=O)N[C@H](c1cn2ncc(C(CC(F)F)c3nnc4ccc(F)cn34)cc2n1)C1CCC(F)(F)CC1 (single isomer, unassigned) [Example 12]
20	Cc1nonc1C(=O)N[C@H](c1cn2ncc(C(CC(F)F)c3nnnn3CC(F)(F)F)cc2n1)C1CCC(F)(F)CC1 (single isomer, unassigned) [Example 15, N-[(S)-(4,4-Difluorocyclohexyl)(7-{(1S*)-3,3-difluoro-1-[1-(2,2,2-trifluoroethyl)tetrazol-5-yl]propyl}imidazo[1,2-b]pyridazin-2-yl)methyl]-4-methyl-1,2,5-oxadiazole-3-carboxamide]
39.8	Cc1nonc1C(=O)N[C@H](c1cn2ncc(C(CC(F)F)C(=O)NCC(F)(F)F)cc2n1)C1CCC(F)(F)CC1 (stereo partly drawn) [Example 1, N-[(S)-(4,4-Difluorocyclohexyl){7-[3,3-difluoro-1-(2,2,2-trifluoroethylcarbamoyl)-propyl]imidazo[1,2-b]pyridazin-2-yl}methyl]-4-methyl-1,2,5-oxadiazole-3-carboxamide]
20	CCc1nonc1C(=O)N[C@H](c1cn2ncc(C(CC(F)F)C(=O)NCC(F)(F)F)cc2n1)C1CCC(F)(F)CC1 (stereo partly drawn) [Example 5, N-[(S)-(4,4-Difluorocyclohexyl){7-[3,3-difluoro-1-(2,2,2-trifluoroethylcarbamoyl)-propyl]imidazo[1,2-b]pyridazin-2-yl}methyl]-4-ethyl-1,2,5-oxadiazole-3-carboxamide]
